Assay results taken from ChEMBL document CHEMBL5260825, “Chemical Constituents of Bryophytes: Structures and Biological Activity” (J Nat Prod, 2018).
Values after ≈ are worked out from the molar mass of the structure shown. Values joined by “and” are separate entries in the source; they are usually repeats but may differ in a detail not shown here. Equal entries are not always repeated. Blank lines part the entries; values can stand above or below the compound they belong to.

Key:
[1] = test system: Peritoneal macrophage cell; assay: Inhibition of superoxide anion radical release in guinea pig peritoneal macrophages; type: functional, cell-based; details: Cavia porcellus
HL-60 = assay: Antiproliferative activity against human HL-60 cells assessed as cell growth inhibition; type: functional, cell-based
P388 = assay: Antiproliferative activity against mouse P388 cells assessed as cell growth inhibition; type: functional, cell-based
RAW264.7 [2] = assay: Inhibition of LPS-induced NO production in mouse RAW264.7 cells; type: functional, cell-based
RPMI-7951 = assay: Antiproliferative activity against human RPMI-7951 cells assessed as cell growth inhibition; type: functional; details: read-out: ED50 (the source's name)
U-251 = assay: Antiproliferative activity against human U-251MG cells assessed as cell growth inhibition; type: functional; details: read-out: ED50 (the source's name)
DNA polymerase beta = DNA polymerase beta (Homo sapiens, UniProt P06746); assay: Inhibition of DNA polymerase beta (unknown origin)
KB = assay: Antiproliferative activity against human KB cells assessed as cell growth inhibition; type: functional, cell-based
[3] = test system: Trichostrongylus colubriformis; assay: Anthelmintic activity against third stage larvae of Trichostrongylus colubriformis by microscope based analysis; type: functional, organism-based
Staphylococcus aureus = assay: Antibacterial activity against Staphylococcus aureus assessed as inhibition of bacterial growth by agar diffusion method; type: functional
[4] = biological target: T1, Polyunsaturated fatty acid 5-lipoxygenase (Homo sapiens) (UniProt P09917); assay: Inhibition of ALOX5 (unknown origin) at 0.000001 M relative to control; details: dose 1 µM
T1 sequence (whole entry): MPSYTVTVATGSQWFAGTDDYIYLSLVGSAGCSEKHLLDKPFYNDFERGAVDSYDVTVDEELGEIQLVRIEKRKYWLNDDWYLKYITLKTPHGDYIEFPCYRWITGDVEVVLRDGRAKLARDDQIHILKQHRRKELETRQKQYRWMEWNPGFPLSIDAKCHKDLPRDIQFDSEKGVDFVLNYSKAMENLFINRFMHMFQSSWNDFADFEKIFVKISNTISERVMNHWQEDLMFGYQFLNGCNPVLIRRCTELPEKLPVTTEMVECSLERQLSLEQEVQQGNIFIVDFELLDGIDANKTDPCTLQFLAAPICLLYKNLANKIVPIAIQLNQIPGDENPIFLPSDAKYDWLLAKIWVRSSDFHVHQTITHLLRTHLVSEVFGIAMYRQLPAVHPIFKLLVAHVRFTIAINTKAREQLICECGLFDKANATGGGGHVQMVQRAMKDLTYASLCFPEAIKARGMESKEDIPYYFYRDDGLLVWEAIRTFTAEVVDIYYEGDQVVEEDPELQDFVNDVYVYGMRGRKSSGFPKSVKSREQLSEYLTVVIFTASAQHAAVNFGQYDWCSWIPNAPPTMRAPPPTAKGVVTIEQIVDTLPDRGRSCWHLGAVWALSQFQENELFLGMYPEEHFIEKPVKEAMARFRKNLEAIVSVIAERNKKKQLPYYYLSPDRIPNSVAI

Cyclooxygenase = Cyclooxygenase (Homo sapiens, UniProt P35354+P23219); assay: Inhibition of COX (unknown origin); type: protein assay
RAW264.7 [5] = assay: Inhibition of LPS-induced NO production in mouse RAW264.7 cells incubated for 24 hrs by Griess reagent based assay; type: functional, cell-based; details: RAW264.7, 24 h
Candida albicans = assay: Antifungal activity against Candida albicans assessed as inhibition of fungal growth by MTT assay; type: functional

Compound: C/C1=C\[C@@H]2[C@H](CC/C(C)=C/CC1)C2(C)C=O (stereo partly drawn)
IC50 [1]: 12.5 µg/mL (≈ 57.3 µM)

IC50 (HL-60): 1.21 µM
Compound: C=C1C(=O)[C@H]2C[C@@H]1CC1=C2[C@]2(C)CCCC(C)(C)[C@H]2CC1

Compound: CC(C)(O)[C@H]1CC[C@@]2(C)C1CC[C@]1(C)C2CCC2[C@@]3(C)CCCC(C)(C)[C@@H]3[C@@H](O)C[C@]21C (stereo partly drawn)
IC50 (P388): 1.1 µg/mL (≈ 2.47 µM)

IC50 (RAW264.7 [2]): 1.7 µM
Compound: C[C@@H]1CC[C@H]2C(=O)c3ccoc3C[C@@]12C
IC50 [1]: 12.5 µg/mL (≈ 61.2 µM)

IC50 (HL-60): 0.59 µM
Compound: C=C1C(=O)[C@@]23CC[C@@H]4C(C)(C)CCC[C@@]4(C)C2=CC(=O)[C@@H]1C3

GI50 (P388): 0.48 µg/mL and 1.6 µM | IC50 (HL-60): 0.49 µM
Compound: C=C1C(=O)[C@@]23CC[C@@H]4C(C)(C)CCC[C@@]4(C)[C@@H]2[C@@H](O)C[C@@H]1C3

EC50 (U-251): 2 µg/mL (≈ 5.84 µM)
Compound: O=C(/C=C/c1ccccc1)c1cc(O)cc2c1CC(c1ccccc1)O2 (stereo not drawn) [PALLIDISETIN A]
EC50 (RPMI-7951): 1 µg/mL (≈ 2.92 µM)

IC50 (DNA polymerase beta): 5.16 µM
Compound: Oc1ccc2c(c1)CCc1ccc(cc1)Oc1cc(cc(-c3cc4c(cc3O)CCc3ccc(cc3)Oc3cc(ccc3O)CCc3ccc-4c(O)c3)c1O)CCc1ccc-2c(O)c1

IC50 (RAW264.7 [2]): 4.5 µM
Compound: Oc1cc(CCc2ccccc2O)c2ccoc2c1

Compound: C=C1CC[C@H]2[C@@H]([C@H]3C(C)=COC(=O)[C@@H]13)C2(C)C
IC50 [1]: 12.5 µg/mL (≈ 53.8 µM)

IC50 (KB): 0.96 µM | IC50 (HL-60): 0.92 µM
Compound: COc1ccc(C[C@@H]2OC(=O)c3c(OC)cc(OC)cc32)cc1

Compound: COc1cc(/C=C/c2ccccc2)ccc1O
IC50 [3]: 60 µg/mL (≈ 265 µM)

IC50 (HL-60): 4.6 µM
Compound: C=C1C(=O)O[C@@H]2/C=C(\C)CC/C=C(\C)CC(OC(C)=O)[C@@H]12 (stereo partly drawn)

Compound: C=C1[C@@H]2CCC3[C@@](CC(=O)[C@@H]4C(C)(C)CCC[C@@]34CO[C@@H]3O[C@H](CO)[C@@H](O)[C@H](O)[C@H]3OC(C)=O)(C2)[C@@H]1O (stereo partly drawn)
IC50 [1]: 12.5 µg/mL (≈ 23.9 µM)

IC50 (RAW264.7 [2]): 4.5 µM
Compound: C[C@H]1CC[C@@]2(C)[C@@H](CC[C@@H]3O[C@@]32C)[C@]1(C)CCc1ccoc1

Compound: NC[C@H]1O[C@H](O[C@H]2[C@H](O)[C@@H](O[C@H]3O[C@H](CO)[C@@H](O)[C@H](N)[C@H]3O)[C@H](N)C[C@@H]2N)[C@H](O)[C@@H](O)[C@@H]1O [KANAMYCIN]
diameter of the inhibition zone (DIZ) (Staphylococcus aureus): 23 mm

IC50 (RAW264.7 [2]): 4.5 µM
Compound: CC1(C)[C@H]2CC[C@]3(C)Oc4cc(O)cc(CCc5ccccc5)c4[C@H]1[C@@H]23

inhibition [4]: 4%
Compound: CC(C)=CCc1c(O)cc(CCc2ccccc2)cc1O

IC50 (RAW264.7 [2]): 6.3 µM
Compound: C=C1C[C@@]23CC(OC(=O)/C=C/c4ccc(O)c(O)c4)[C@@H]1[C@@]2(C)CCCC3(C)C (stereo partly drawn)

IC50 (P388): 0.7 µg/mL (≈ 3.01 µM)
Compound: C=C1C(=O)O[C@H]2/C=C(\C)CC/C=C(\C)CC[C@H]12

IC50 (Cyclooxygenase): 45.2 µM | IC50 (DNA polymerase beta): 14.4 µM
Compound: COc1cc(CCc2cccc(Oc3c(O)cccc3CCc3ccc(O)cc3)c2)cc(O)c1O

IC50 (HL-60): 8.5 µM
Compound: C=C1C(=O)O[C@H]2C/C(C)=C/CC[C@@]3(C)O[C@H]3C[C@H]12

Compound: COc1cc(/C=C\c2ccccc2)ccc1O
IC50 [3]: 70 µg/mL (≈ 309 µM)

IC50 (P388): 2.3 µg/mL (≈ 9.19 µM)
Compound: CC1(C)CCC[C@]2(C)CC3=CC(=O)O[C@@]3(O)C[C@@H]12

IC50 (HL-60): 0.4 µM
Compound: C=C1C(=O)[C@]23C[C@H]1CC[C@H]2[C@]1(C)CCCC(C)(C)[C@H]1[C@@H](O)C3

Compound: C=C1[C@@H]2CCC3[C@@](CC(=O)[C@@H]4C(C)(C)CCC[C@@]34CO[C@@H]3O[C@H](CO)[C@@H](O)[C@H](O)[C@H]3O)(C2)[C@@H]1O (stereo partly drawn)
IC50 [1]: 12.5 µg/mL (≈ 26 µM)

IC50 (RAW264.7 [5]): 4.1 µM
Compound: Cc1ccc(O)c([C@@]2(C)CCCC2(C)C)c1

IC50 (HL-60): 7 µM
Compound: C=C1C(=O)[C@@]23CC[C@@H]4C(C)(C)CC[C@H](O)[C@@]4(C)C2=CC[C@@H]1C3

Compound: O=C(N[C@H](CO)[C@H](O)c1ccc([N+](=O)[O-])cc1)C(Cl)Cl [CHLORAMPHENICOL]
diameter of the inhibition zone (DIZ) (Staphylococcus aureus): 22 mm

IC50 (P388): 1.1 µg/mL (≈ 4.73 µM)
Compound: C=C1C(=O)O[C@H]2C3=C(C)CCC[C@@]3(C)CC[C@H]12

Compound: COC(=O)[C@@]12Cc3occc3C(=O)[C@]1(C)CC[C@H]2C [NORPINGUISONE METHYL ESTER]
IC50 [1]: 35 µg/mL (≈ 133 µM) | IC50 (RAW264.7 [2]): 45.5 µM

IC50 (P388): 1 µg/mL (≈ 3.62 µM)
Compound: C=C1C(=O)C[C@H]2[C@H]3[C@@H]1[C@]2(COC(C)=O)CCCC3(C)C

Compound: CC1(C)[C@H](OC(=O)/C=C/c2ccc(O)c(O)c2)CC[C@]2(C)[C@H]3C4C[C@@]12C[C@]43C
IC50 [1]: 7.5 µg/mL (≈ 19.6 µM)

IC50 (HL-60): 0.28 µM
Compound: C=C1C(=O)[C@H]2C[C@@H]1CC1=C2[C@@]2(C)[C@H](CC1)C(C)(C)CC[C@@H]2O

IC50 (DNA polymerase beta): 13 µM
Compound: Oc1ccc2c(c1)CCc1ccc(cc1)Oc1cc(cc(-c3cc4cc(c3O)Oc3ccc(cc3)CCc3cc(O)ccc3-c3ccc(cc3O)CC4)c1O)CCc1ccc-2c(O)c1 [PUSILATIN B]

IC50 (HL-60): 0.78 µM
Compound: C=C1C(=O)[C@@H]2C3=C(CC[C@@H]4C(C)(C)CC[C@H](O)[C@@]34C)C[C@H]1[C@@H]2O

EC50 (U-251): 0.8 µg/mL (≈ 1.99 µM)
Compound: COc1cc(OC)c2c3c1-c1c(O)cccc1[C@@H]1Oc4ccccc4[C@@H](C[C@@H]2O)[C@@H]31

Compound: Clc1ccc(COC(Cn2ccnc2)c2ccc(Cl)cc2Cl)c(Cl)c1 (stereo not drawn) [MICONAZOLE]
MID (Candida albicans): 0.01 µg

IC50 (HL-60): 2.7 µM
Compound: C=C[C@@]1(O)CC(=O)[C@@]2(C(=O)OC)[C@H](C)CC[C@@]2(C)[C@@H]1C

GI50 (P388): 1.9 µg/mL and 5.9 µM | IC50 (P388): 0.8 µg/mL (≈ 2.51 µM)
Compound: C[C@H]1C(=O)C2=C[C@H]1CCC(=O)[C@]1(C)CCCC(C)(C)[C@H]1C[C@H]2O

inhibition [4]: 4%
Compound: CC1=CCc2c(O)cc(CCc3ccc(O)cc3)cc2OC1

IC50 (RAW264.7 [2]): 4.5 µM
Compound: CC(C)=CCC/C(C)=C/Cc1c(O)cc(O)cc1CCc1ccccc1

IC50 (RAW264.7 [2]): 4.5 µM
Compound: CC(C)=CCC[C@@]1(C)C=Cc2c(CCc3ccccc3)cc(O)cc2O1

IC50 (P388): 1 µg/mL (≈ 4.58 µM)
Compound: C=C1C(=O)C[C@H]2[C@H]3[C@@H]1[C@]2(C)CCCC3(C)C

IC50 (RAW264.7 [2]): 4.5 µM
Compound: CC1=CCc2c(O)cc(CCc3ccccc3O)cc2OC1

IC50 (KB): 7.6 µM | inhibition [4]: 4% | IC50 (Cyclooxygenase): 58 µM
Compound: COC1Cc2cccc(c2)Oc2c(O)cccc2CCc2ccc(cc2)Oc2cc1cc(O)c2O (stereo not drawn) [MARCHANTIN E]
MID (Candida albicans): 2.5 µg/mL

Compound: Oc1ccc2cc1Oc1ccc(cc1)CCc1c(cc(O)c(O)c1O)-c1ccc(cc1O)CC2
MID (Candida albicans): 4 µg/mL

IC50 (KB): 3.3 µg/mL | IC50 (HL-60): 1.4 µg/mL
Compound: C=C1C(=O)O[C@H]2C[C@@]3(C)CCC=C(C)[C@@H]3C[C@@H]12

IC50 (HL-60): 1.28 µM
Compound: C=C1C(=O)[C@@H]2C3=C(CC[C@@H]4C(C)(C)CCC[C@@]34C)C[C@H]1[C@@H]2O

Compound: C[C@]12COc3cc(CCc4ccccc4)c(C(=O)O)c(O)c3[C@H]1C2
IC50 [1]: 6 µg/mL (≈ 18.5 µM)

IC50 (RAW264.7 [2]): 4.5 µM
Compound: C[C@H]1C(O)(O)C[C@@]2(C)[C@@H](CC[C@@H]3O[C@@]32C)[C@]1(C)CCc1ccoc1

inhibition [4]: 4% | IC50 (Cyclooxygenase): 39.7 µM
Compound: CC1=CCc2c(cc(CCc3ccccc3)c(C(=O)O)c2O)OC1

inhibition [4]: 4% | IC50 (RAW264.7 [2]): 4.5 µM
Compound: CC1=CCc2c(O)cc(CCc3ccccc3)cc2OC1

Compound: Cc1ccc([C@@]2(C)CCCC2(C)C)c(O)c1O
IC50 (RAW264.7 [5]): 4.1 µM

IC50 (HL-60): 5.3 µg/mL
Compound: C=C1CCC[C@H]2C(=C)C(=O)O[C@@]23[C@@H](C)CC[C@@H]13

IC50 (DNA polymerase beta): 14.4 µM
Compound: Oc1cccc(CCc2ccc(Oc3cc(CCc4cccc(O)c4)cc(O)c3O)cc2)c1 [PERROTETTIN F]

IC50 (RAW264.7 [5]): 4.1 µM
Compound: Cc1cc([C@@]2(C)CCCC2(C)C)ccc1O

Compound: Cc1cc([C@@]2(C)CCCC2(C)C)cc(O)c1O
IC50 [1]: 12.5 µg/mL (≈ 53.3 µM)

EC50 (U-251): 2 µg/mL (≈ 5.84 µM)
Compound: O=C(/C=C\c1ccccc1)c1cc(O)cc2c1CC(c1ccccc1)O2 (stereo not drawn) [PALLIDISETIN B]
EC50 (RPMI-7951): 1 µg/mL (≈ 2.92 µM)
